Results as given in patent publication US6646124B2, “Substituted 4-oxo-napthyridine-3-carboxamides: GABA brain receptor ligands” (Neurogen Corporation, priority 1997, dated 2003).

SMILES | melting point
CCOc1ccc2[nH]cc(C(=O)NCC3CCCO3)c(=O)c2n1 (stereo not shown) [Compound 4, N-(2-Tetrahydrofuranyl)methyl 6-ethoxy-4-oxo-1,4-tetrahydro-1,5-naphthyridine-3-carboxamide] | 235 to 237 °C
CCSCCNC(=O)c1c[nH]c2ccc(OC)nc2c1=O [Compound 5, N-[2-(ethylthio)ethyl] 6-methoxy-4-oxo-1,4-dihydro-1,5-napththyridine-3-carboxamide] | 257 to 259 °C (dec.)
O=C(NCc1ccccc1F)c1c[nH]c2ccc(N3CCOCC3)nc2c1=O [Compound 7, N-(2-Fluorobenzyl) 6-morpholino-4-oxo-1,4-tetrahydro-1,5-naphthyridine-3-carboxamide] | 137 to 139 °C
CCOc1ccc2[nH]cc(C(=O)NCc3ccc4c(c3)OCO4)c(=O)c2n1 [Compound 9, N-Piperonyl 6-ethoxy-4-oxo-1,4-tetrahydro-1,5-naphthyridine-3-carboxamide] | 190 °C
